Test results taken from patent US20200205401A1, “LACTONES AS SOLVENTS IN AGROCHEMICAL FORMULATIONS” (priority 2017, published 2020).
“And” between values parts separate entries of the source, which are not always exact repeats. Equal entries are not always repeated. Structures can show the parent of a compound that is named as a salt. Where two headings read alike, the source gives them in different places.

Assays:
[1] = Azoxystrobin dissolved in organic liquid, diluted with 20 volumes of water, visual assessment of layers or crystals; assay type: physicochemical; details: water 20 times the solvent volume, assessed visually at 48 hours
Procedure: Azoxystrobin was dissolved in a range of organic liquids, some of which are known to be solvents for agrochemicals, at room temperature and allowed to equilibrate. A measured quantity of water was added and each mixture was shaken. The volume of water was 20 times greater than the volume of organic liquid/solvent. After settling the samples were assessed as being either (i) split into two layers with no evidence of pesticide crystalisation, or (ii) identified as a single layer where the pesticide had precipitated out as crystals.
Samples were assessed after 24 and 48 hours. The log P octanol values for the solvents have been taken from the literature or, where this value was not available, were estimated using the program ProPred™ (ICAS ProPred™, KT Consortium, DTU Kemiteknik, Lyngby, Denmark). Where values were estimated, a simple check was carried out using measuring cylinders with 50/50 volumes of octanol and water. Solvent was added to the cylinder until a clear observation of the effect of the addition was apparent.

[2] = solvents of Table 2/3; literature, or estimated with ProPred where not available; cited from earlier work
[3] = Azoxystrobin dissolved in organic liquid, diluted with 20 volumes of water, visual assessment of layers or crystals; assay type: physicochemical
[4] = log P octanol by octanol saturated chromatography column; assay type: physicochemical; details: octanol/water (octanol saturated chromatography column); 25° C., pH 6.98; read-out: octanol water partition coefficient (log P octanol)
Source text: Samples of gamma caprolactone were examined using an octanol saturated chromatography column.

[5] = Aqueous solubility of gamma caprolactone by HPLC; assay type: physicochemical; details: calculated mean of a set of six measurements
Procedure: The aqueous solubility of gamma caprolactone was measured using HPLC chromatography. Several samples of the lactone were equilibrated at room temperature with an equal volume of water. The samples were left for two weeks then analysed by HPLC.

[6] = 5% w/w solutions of agrochemicals in solvent diluted into water 20:1, appearance; assay type: physicochemical; details: for APPEARANCE OF FORMULATION, Difenoconazole: 5% w/w difenoconazole in solvent; for APPEARANCE OF FORMULATION, Difenoconazole / APPEARANCE OF FORMULATION, Fludioxonil / APPEARANCE OF FORMULATION, Mandipropamid / APPEARANCE OF FORMULATION, Pinoxaden: diluted into water 20:1; for APPEARANCE OF FORMULATION, Fludioxonil: 5% w/w fludioxonil in solvent; for APPEARANCE OF FORMULATION, Mandipropamid: 5% w/w mandipropamid in solvent; for APPEARANCE OF FORMULATION, Pinoxaden: 5% w/w pinoxaden in solvent; for appearance with each of the agrochemical active ingredients: mandipropamid, fludioxonil, pinoxaden, difenoconazole, 5% w/w, diluted 20:1
Procedure: In this example several pesticidally active agrochemical ingredients (mandipropamid, fludioxonil, pinoxaden, and difenoconazole) were dissolved in each of the three solvents to give solutions of 5% w/w. Each solution was then diluted into water to form a 20:1 mixture.

[7] = 20° C.; cited from earlier work

## CC(O)C(=O)N(C)C (stereo not drawn) [Dimethyl lactamide]
[1]
  APPEARANCE (azoxystrobin solution in solvent after addition of water): Crystallised
[2]
  logP octanol: −0.22

## CC1CCC(=O)O1 (stereo not drawn) [γ-Valerolactone]
[1]
  APPEARANCE (azoxystrobin solution in solvent after addition of water): Crystallised
[2]
  logP octanol: 0.21

## O=C1CCCO1 [γ-Butyrolactone]
[1]
  APPEARANCE (azoxystrobin solution in solvent after addition of water): Crystallised
[2]
  logP octanol: −0.60

## O=C1CCCCO1 [δ-Valerolactone]
[1]
  APPEARANCE (azoxystrobin solution in solvent after addition of water): Crystallised
[2]
  logP octanol: −0.26

## CCCCCCOCCOCCO [Diethylene glycol hexyl ether]
[1]
  APPEARANCE (azoxystrobin solution in solvent after addition of water): 2 layer
[2]
  logP octanol: 2.16

## CCCCOCC(C)O (stereo not drawn) [Propylene glycol n-butyl ether]
[1]
  APPEARANCE (azoxystrobin solution in solvent after addition of water): 2 layer

## CCC1CCC(=O)O1 (stereo not drawn) [γ-Caprolactone, 5-ethyltetrahydrofuran-2-one]
[3]
  appearance after further 100-fold dilution in water: two layers still did not become miscible
[4]
  chromatographic logP: 0.34
[5]
  Aqueous solubility, Mean: 10.93 % w/w and 11.01 % w/w
[6]
  APPEARANCE OF FORMULATION, Difenoconazole: 2 layers
  APPEARANCE OF FORMULATION, Fludioxonil: 2 layers
  APPEARANCE OF FORMULATION, Mandipropamid: 2 layer
  APPEARANCE OF FORMULATION, Pinoxaden: 2 layers
  appearance with each of the agrochemical active ingredients: two-layer system

## OCCO [Ethylene glycol]
[3]
  APPEARANCE (azoxystrobin solution in solvent after addition of water): Crystallised

## OCc1ccccc1 [Benzyl alcohol]
[1]
  APPEARANCE (azoxystrobin solution in solvent after addition of water): 2 layer

## O=C1CCCCCO1 [ε-Caprolactone]
[1]
  APPEARANCE (azoxystrobin solution in solvent after addition of water): Crystallised
[2]
  logP octanol: 0.70

## Butylene carbonate
[1]
  APPEARANCE (azoxystrobin solution in solvent after addition of water): 2 layer
[2]
  logP octanol: 1.21

## CC(=O)OCC(COC(C)=O)OC(C)=O [Triacetin]
[1]
  APPEARANCE (azoxystrobin solution in solvent after addition of water): 2 layer

## OC1CCCCC1 [Cyclohexanol]
[1]
  APPEARANCE (azoxystrobin solution in solvent after addition of water): 2 layer

## Diethylene carbonate
[3]
  APPEARANCE (azoxystrobin solution in solvent after addition of water): 2 layer

## Hexylene glycol
[7]
  miscibility with water: fully miscible
[1]
  APPEARANCE (azoxystrobin solution in solvent after addition of water): Crystallised
[6]
  APPEARANCE OF FORMULATION, Difenoconazole: Crystallised
  APPEARANCE OF FORMULATION, Fludioxonil: Crystallised
  APPEARANCE OF FORMULATION, Mandipropamid: Crystallised
  APPEARANCE OF FORMULATION, Pinoxaden: Crystallised
  appearance with each of the agrochemical active ingredients: crystallisation

## CC(=O)c1ccccc1 [Acetophenone]
[1]
  APPEARANCE (azoxystrobin solution in solvent after addition of water): 2 layer

## CCCCOC(=O)c1ccccc1 [Butyl benzoate]
[1]
  APPEARANCE (azoxystrobin solution in solvent after addition of water): 2 layer

## CC(=O)OCC(C)OC(C)=O (stereo not drawn) [Propylene glycol diacetate]
[1]
  APPEARANCE (azoxystrobin solution in solvent after addition of water): Crystallised
[2]
  logP octanol: 0.94

## CCCOC(=O)C(C)O (stereo not drawn) [Propyl lactate]
[1]
  APPEARANCE (azoxystrobin solution in solvent after addition of water): 2 layer

## COC(=O)C(C)O (stereo not drawn) [Methyl lactate]
[1]
  APPEARANCE (azoxystrobin solution in solvent after addition of water): Crystallised

## CCOP(=O)(OCC)OCC [Triethyl phosphate]
[1]
  APPEARANCE (azoxystrobin solution in solvent after addition of water): Crystallised
[2]
  logP octanol: 0.28

## COC(=O)c1ccccc1 [Methyl benzoate]
[1]
  APPEARANCE (azoxystrobin solution in solvent after addition of water): 2 layer
[2]
  logP octanol: 1.85

## CCOC(=O)/C=C/C(=O)OCC [Diethyl fumarate]
[1]
  APPEARANCE (azoxystrobin solution in solvent after addition of water): 2 layer

## CCCOC(=O)c1ccccc1 [Propyl benzoate]
[1]
  APPEARANCE (azoxystrobin solution in solvent after addition of water): 2 layer

## COC(C)COC(C)CO (stereo not drawn) [Dipropylene glycol monomethyl ether]
[1]
  APPEARANCE (azoxystrobin solution in solvent after addition of water): Crystallised
